Molecules are shown by their SMILES.

The nature of this test: Oxidative induction time (OIT) by DSC, compound mixed with polyisoprene. Particulars: 0.5 wt % compound mixed with polyisoprene, isothermal 160 °C in O2, DSC; blank 1-2 minutes. On the procedure: OIT is measured according to a procedure carried out in a differential scanning calorimeter (TA Instruments, Q200), also knows as DSC, and is used to predict thermo-oxidative performance of a material. In this procedure, each sample is held in a sample cell and heated under a nitrogen atmosphere to a preselected temperature.
0.5 wt % of a Compound of the Disclosure, or no antidegradant (blank) was mixed with polyisoprene and heated isothermally at 160° C. in O2.
In general terms: Differential scanning calorimetry records heat flow against a reference as temperature is scanned.
On to `CC1=CC(C)(C)Nc2ccc(Sc3ccc4c(c3)C(C)=CC(C)(C)N4)cc21` [Compound 153-A, bis(2,2,4-trimethyl-1,2-dihydroquinolin-6-yl)sulfane], for which the “Peak time of OIT testing” value was 5.8 min.

In the case of `Cc1cc(NC(C)C)cc2c1NC(c1ccccc1)CC2(C)c1ccccc1` (stereo not shown) [Compound 3-F, N-isopropyl-4,8-dimethyl-2,4-diphenyl-1,2,3,4-tetrahydroquinolin-6-amine], the “Peak time of OIT testing” value stood at 43.8 min.

On to `CC1=CC(C)(C)Nc2c(C)cc(Nc3ccccc3)cc21` [Compound 1-B, 2,2,4,8-tetramethyl-N-phenyl-1,2-dihydroquinolin-6-amine], for which the “Peak time of OIT testing” value is 15.2 min.

Turning to `CCOC(=O)C1=CC(C)(C(=O)OCC)Nc2c(C)cc(Nc3ccccc3)cc21` (stereo not shown) [Compound 120-B, diethyl 2,8-dimethyl-6-(phenylamino)-1,2-dihydroquinoline-2,4-dicarboxylate], the “Peak time of OIT testing” value was 11.5 min.

`CCC(CC)Nc1cc(C)c2c(c1)C(C)(c1ccccc1)CCN2` (stereo not shown) [Compound 2-F, 4,8-dimethyl-N-(pentan-3-yl)-4-phenyl-1,2,3,4-tetrahydroquinolin-6-amine]: the “Peak time of OIT testing” value turned out to be 17.4 min.

For the compound `CC(C)CCC(C)Nc1ccc(NC(C)CCC(C)C)nc1` (stereo not shown) [Compound 1-E, N^2,N^5-bis(5-methylhexan-2-yl)pyridine-2,5-diamine], the “Peak time of OIT testing” value amounted to 11.1 min.

As for `CC1=CC(C)(C)Nc2ccc(NCc3ccco3)cc21` [Compound 1-H, N-(furan-2-ylmethyl)-2,2,4-trimethyl-1,2-dihydroquinolin-6-amine], the “Peak time of OIT testing” value worked out at 10.7 min.

Take `CCC(C)Nc1ccc2c(c1)CCN2` (stereo not shown) [Compound 2-C, N-(sec-butyl) indolin-5-amine]: the “Peak time of OIT testing” value was determined as 14.1 min.

In the case of `CC(C)Nc1ccc(C(c2ccccc2)c2ccc(NC(C)C)cc2)cc1` [Compound 16-A, 4,4′-(phenylmethylene)bis(N-isopropylaniline)], the “Peak time of OIT testing” value came to 6.6 min.

As to `COC1=CC(=Nc2ccccc2)C=C2C(C)=CC(C)(C)N=C12` [Compound 7-D, 8-methoxy-2,2,4-trimethyl-N-phenylquinolin-6(2H)-imine], the “Peak time of OIT testing” value is 24.6 min.

`Cc1cc(Nc2ccccc2)cc2c1NC(C)(C)CC2C` (stereo not shown) [Compound 2-B, 2,2,4,8-tetramethyl-N-phenyl-1,2,3,4-tetrahydroquinolin-6-amine]: the “Peak time of OIT testing” value is 17.8 min.

On to `CC(C)Nc1ccc(Oc2ccc(NC(C)C)cc2)cc1` [Compound 27-A], for which the “Peak time of OIT testing” value was determined as 4.2 min.

For the compound `c1coc(CNc2ccc(Cc3ccc(NCc4ccco4)cc3)cc2)c1` [Compound 8-A, 4,4′-methylenebis(N-(furan-2-ylmethyl)aniline)], the “Peak time of OIT testing” value worked out at 2.9 min.

Turning to `CC(Nc1ccc(Cc2ccc(NC(C)c3ccco3)cc2)cc1)c1ccco1` (stereo not shown) [Compound 20-A, 4,4′-methylenebis(N-(1-(furan-2-yl)ethyl)aniline)], the “Peak time of OIT testing” value is 2.3 min.

For `c1coc(CNc2ccc(C(c3ccc(NCc4ccco4)cc3)c3ccco3)cc2)c1` [Compound 7-A, 4,4′-(furan-2-ylmethylene)bis(N-(furan-2-ylmethyl)aniline)], the “Peak time of OIT testing” value was 4.1 min.

Consider `CC(Nc1ccc(Cc2ccc(NC(C)c3ccccc3)cc2)cc1)c1ccccc1` (stereo not shown) [Compound 21-A, 4,4′-methylenebis(N-(1-phenylethyl)aniline)], for which the “Peak time of OIT testing” value turned out to be 2.6 min.

`Cc1cc(NC(C)c2ccccc2)cc2c1NC(C)(C)CC2` (stereo not shown) [Compound 119-B, 2,2,8-trimethyl-N-(1-phenylethyl)-1,2,3,4-tetrahydroquinolin-6-amine]: the “Peak time of OIT testing” value was found to be 21.9 min.

As for `CCOC(=O)C1=CC(C)(C(=O)OCC)Nc2ccc(Nc3ccccc3)cc21` (stereo not shown) [Compound 3-H, diethyl 2-methyl-6-(phenylamino)-1,2-dihydroquinoline-2,4-dicarboxylate], the “Peak time of OIT testing” value turned out to be 12.9 min.

Regarding `Cc1cc(NC(C)C)cc2c1NC(C(C)C)CC2(C)c1ccccc1` (stereo not shown) [Compound 4-F, N,2-diisopropyl-4,8-dimethyl-4-phenyl-1,2,3,4-tetrahydroquinolin-6-amine], the “Peak time of OIT testing” value turned out to be 19.6 min.

In the case of `CC1CC(C)(C)Nc2ccc(Cc3ccc4c(c3)C(C)CC(C)(C)N4)cc21` (stereo not shown) [Compound 2-A, bis(2,2,4-trimethyl-1,2,3,4-tetrahydroquinolin-6-yl) methane], the “Peak time of OIT testing” value is 10.8 min.

For the compound `CC1=CC(C)(C)Nc2ccc(Cc3ccc4c(c3)C(C)=CC(C)(C)N4)cc21` [Compound 1-A, bis(2,2,4-trimethyl-1,2-dihydroquinolin-6-yl) methane], the “Peak time of OIT testing” value was found to be 4.8 min.

Turning to `CC(C)Nc1ccc(C(c2ccc(NC(C)C)cc2)c2ccco2)cc1` [Compound 3-A, 4,4′-(furan-2-ylmethylene)bis(N-isopropylaniline)], the “Peak time of OIT testing” value came out at 5.9 min.

As to `CC1CC(C)(C)Nc2cc3c(cc21)NC(C)(C)CC3C` (stereo not shown) [Compound 33-H, 2,2,4,7,7,9-hexamethyl-1,2,3,4,6,7,8,9-octahydropyrido[2,3-g]quinoline], the “Peak time of OIT testing” value was found to be 8.3 min.

As to `CC(Nc1ccc2[nH]ccc2c1)c1ccccc1` (stereo not shown) [Compound 19-C, N-(1-phenylethyl)-1H-indol-5-amine], the “Peak time of OIT testing” value was 6.9 min.

On to `CC1=CC(C)(C)Nc2c1ccc(NC(C)CC(C)C)c2C` (stereo not shown) [Compound 1-J, 2,2,4,8-tetramethyl-N-(4-methylpentan-2-yl)-1,2-dihydroquinolin-7-amine], for which the “Peak time of OIT testing” value came out at 2.6 min.

Take `CC(C)Nc1ccc(Sc2ccc(NC(C)C)cc2)cc1` [Compound 11-A]: the “Peak time of OIT testing” value amounted to 2.5 min.

As to `COc1cc(Nc2ccccc2)cc2c1NC(C)(C)C=C2C` [Compound 7-B, 8-methoxy-2,2,4-trimethyl-N-phenyl-1,2-dihydroquinolin-6-amine], the “Peak time of OIT testing” value was determined as 31.0 min.

Consider `Cc1c(NC(C)C)ccc2c1NCCC2(C)c1ccccc1` (stereo not shown) [Compound 2-J, N-isopropyl-4,8-dimethyl-4-phenyl-1,2,3,4-tetrahydroquinolin-7-amine], for which the “Peak time of OIT testing” value came to 15.6 min.

As for `Cc1cc(Cc2cc(C)c(NC(C)C)c(C)c2)cc(C)c1NC(C)C` [Compound 154-A, 4,4′-methylenebis(N-isopropyl-2,6-dimethylaniline)], the “Peak time of OIT testing” value stood at 1.5 min.

As to `Cc1cc(NC(C)C)cc2c1NCC(C)(C)C2` [Compound 47-F, N-isopropyl-3,3,8-trimethyl-1,2,3,4-tetrahydroquinolin-6-amine], the “Peak time of OIT testing” value was found to be 3.2 min.

In the case of `CCC(C)Nc1ccc2[nH]ccc2c1` (stereo not shown) [Compound 1-C, N-(sec-butyl)-1H-indol-5-amine], the “Peak time of OIT testing” value came out at 19.2 min.

For `CC(C)Nc1ccc(Cc2ccc(NC(C)C)cc2)cc1` [Compound 19-A, 4,4′-methylenebis(N-isopropylaniline)], the “Peak time of OIT testing” value is 2.7 min.

Regarding `Cc1cc(NC(C)C)cc2c1NCCC2(C)c1ccccc1` (stereo not shown) [Compound 1-F, N-isopropyl-4,8-dimethyl-4-phenyl-1,2,3,4-tetrahydroquinolin-6-amine], the “Peak time of OIT testing” value was determined as 20.3 min.

In the case of `CC1=CC(C)(C)Nc2cc3c(cc21)NC(C)(C)C=C3C` [Compound 32-H, 2,2,4,7,7,9-hexamethyl-1,2,6,7-tetrahydropyrido[2,3-g]quinoline], the “Peak time of OIT testing” value is 6.6 min.

For the origin of these results see US20260209483A1, “RUBBER COMPOSITIONS COMPRISING ANTIDEGRADANTS” (FLEXSYS AMERICA L.P., priority 2022, published 2026).
